# Test results from PubChem BioAssay AID449750 (Broad Institute, 2010).
# Activity calls are given as the source filed them. The rule behind the calls is not given here.
# Test: non-covalent RecA intein splicing inhibitors, dose response, biochemical, cell-free, fluorescence, secondary screen (AID 449750)
row,Structure (SMILES),AC50
1,CCOC(=O)C1=C(c2ccccc2)O/C(=C(/C#N)C(F)(F)F)S1,> 38 µM (inactive)
2,O=C(CSC1=NCCS1)Nc1nc(-c2ccccc2)cs1,30.5 µM
3,Cc1ccc(S(=O)(=O)N(C(=O)c2ccncc2)c2ccc(OC(=O)c3ccncc3)c3ccccc23)cc1,4.13 µM
4,ClCc1nnc(-c2cc3c(s2)CCCC3)o1,> 38 µM (inactive)
5,Cc1cc(=O)n(-c2ccc(C(=O)O)cc2)[nH]1,1.92 µM
6,O=C(N/N=C/c1ccc([N+](=O)[O-])o1)c1ccccc1NS(=O)(=O)c1cccs1,> 38 µM (inactive)
7,CCOc1ccc(S(=O)(=O)NCc2cccnc2)cc1C,> 38 µM (inactive)
8,CC(Nc1c[nH]c(=O)[nH]c1=O)c1ccccc1 (stereo not given),> 38 µM (inactive)
9,Cc1cc(C)cc(S(=O)(=O)c2cnc3ccccc3n2)c1,> 38 µM (inactive)
10,CCOc1ccc(C2C(C#N)=C(N)Oc3n[nH]c(C)c32)cc1OC(=O)C1CC1 (stereo not given),> 38 µM (inactive)
11,COc1cc(C2NC(=O)C(C#N)=C(Nc3cccc(C)c3)S2)ccc1O (stereo not given),3.17 µM
12,O=C(Sc1nnc(-c2ccccc2)o1)N1c2ccccc2Sc2ccccc21,11 µM
13,COc1ccc(C2NC(c3ccc(OC)cc3OC)C(C)C(=O)C2C)c(OC)c1 (stereo not given),> 38 µM (inactive)
14,Cc1noc(C)c1CSCC(=O)Oc1ccc(N(C)S(=O)(=O)c2ccccc2)cc1,> 38 µM (inactive)
15,Cc1nn(-c2ccccc2)c2c1C1(C(=O)N3c4c(cccc41)C(C)CC3(C)C)C(C#N)=C(N)O2 (stereo not given),23.9 µM
16,CCCCCC(=O)Cc1cc(O)cc2c1C(=O)Oc1cc(O)c(C(=O)O)c(CCCCC)c1O2,6.09 µM
17,CCOC(=O)/C(C#N)=C\c1ccc(O)c(OC)c1,> 38 µM (inactive)
18,Cc1[nH]n(-c2ccccc2)c(=O)c1/C=N\NC(=O)C1COc2ccccc2O1 (stereo not given),8.94 µM
19,O=C1NCCCC2c3c(cc(Br)c(O)c3Br)OC12N1CCCCC1 (stereo not given),> 38 µM (inactive)
20,Cc1cc(C)c(C#N)c(SCc2[nH]nc3c2C(c2ccc(F)cc2)C(C#N)=C(N)O3)n1 (stereo not given),29.2 µM
21,Cc1ccc(Nc2cc(C)nn2-c2nc(C)cc(=O)[nH]2)cc1,5.05 µM
22,CC1=NN(c2ccc(C(=O)O)c(N)c2)C(=O)C1,2.87 µM
23,CC(C)(C)NC(=O)C(c1ccc(Cl)cc1)N(Cc1ccco1)C(=O)CCl (stereo not given),11.6 µM
24,Cc1ccc(S(=O)(=O)N(C(=O)c2ccncc2)c2ccc(OC(=O)c3ccncc3)c3ccccc23)c(C)c1,16.9 µM
25,COc1ccc(OC)c(NC(=O)Cc2ccc(NC3=NC4CS(=O)(=O)CC4S3)cc2)c1 (stereo not given),> 38 µM (inactive)
26,CCc1ccc(C2C(C#N)=C(N)C(C#N)(C#N)C3=CCC(C(C)(C)C)CC32)cc1 (stereo not given),> 38 µM (inactive)
27,Cc1cc(F)ccc1S(=O)(=O)N(C(=O)c1ccncc1)c1ccc(OC(=O)c2ccncc2)cc1,> 38 µM (inactive)

row,Structure (SMILES),AC50
1,Cc1nnc(N/N=C/c2ccccc2O)n1N,21.8 µM
2,COc1cc(C(c2c(C)[nH][nH]c2=O)c2c(C)[nH][nH]c2=O)cc(Cl)c1O,2.2 µM
3,Cc1ccc2nc(/C(C#N)=C\c3ccc([N+](=O)[O-])o3)[nH]c2c1,> 38 µM (inactive)
4,COc1ccc(/C=C(/C#N)C(=O)Nc2ccc(O)cc2)cc1C(=O)O,> 38 µM (inactive)
5,COc1ccc(C2=NN(c3ccccc3)C(=O)/C2=C\c2ccc(O)c(OC)c2)cc1,3.62 µM
6,O=C(Nc1ncc([N+](=O)[O-])s1)c1ccco1,> 38 µM (inactive)
7,COc1ccc(O)c(C(c2c(C)[nH][nH]c2=O)c2c(C)[nH][nH]c2=O)c1,8.26 µM
8,COCc1[nH]nc2c1C(c1ccc(OC)cc1)C(C#N)=C(N)O2 (stereo not given),32.2 µM
9,CCCc1[nH]nc2c1C(c1ccncc1)C(C#N)=C(N)O2 (stereo not given),> 38 µM (inactive)
10,O=C1CCCC(O)=C1C(C#Cc1ccccc1)C1=C(O)CCCC1=O,14.7 µM
11,Cn1cnc([N+](=O)[O-])c1Oc1cccc2ccccc12,> 38 µM (inactive)
12,O=C(c1ccc(Cl)cc1)c1c[nH]c(C(=O)C(Cl)(Cl)Cl)c1,16.6 µM
13,COc1ccc(Nc2ccc(OC)cc2)cc1,> 38 µM (inactive)
14,CC(C)(C)c1ccc(/C=C(\c2nc3ccccc3[nH]2)S(=O)(=O)c2ccccc2)cc1,39.1 µM
15,Cn1c(SCC(=O)NCc2ccc(F)cc2)nc2ccccc21,> 38 µM (inactive)
16,CCN(CC)CCOc1ccc(/C(=C(\Cl)c2ccccc2)c2ccccc2)cc1,9.57 µM
17,COc1ccc(CN(CCC(c2ccccc2)c2ccc(OC(C)C)cc2)C(=O)CCl)cc1OC (stereo not given),0.569 µM
18,O=C1C(Cl)=C(N2CCCCC2)C(=O)N1c1ccccc1Cl,> 38 µM (inactive)
19,CCc1ccc(NC(=O)C(=O)N/N=C(\C)CC(=O)Nc2ccccn2)cc1,> 38 µM (inactive)
20,COc1ccc(C2NC(=O)NC3=C2CCc2ccccc23)cc1 (stereo not given),> 38 µM (inactive)
21,CN(CCO)c1cc(Sc2nc3ccccc3s2)c2nonc2c1[N+](=O)[O-],7.53 µM
22,CCCCCCn1c(N2CCC(C(N)=O)CC2)nc2c1c(=O)n(C)c(=O)n2C,> 38 µM (inactive)
23,Cc1noc2ncnc(Sc3ccccc3Cl)c12,> 38 µM (inactive)
24,COc1cccc(-n2nc(C#N)c(Cl)cc2=O)c1,> 38 µM (inactive)
25,O=C(NC1=C(Nc2ccc(Cl)cc2)C(=O)c2ccccc2C1=O)c1ccccc1,34.4 µM
26,COc1ccc(/C=N/NC(=O)c2nn(-c3ccccc3)c(=O)c3c(N)scc23)cc1,> 38 µM (inactive)
27,COc1ccc2nc3cccc(OC)c3nc2c1,16.1 µM

row,Structure (SMILES),AC50
1,N#CC1=C(N)Oc2n[nH]c(-c3cccs3)c2C1c1ccccc1C(=O)O (stereo not given),20.9 µM
2,Cc1ccc(NC2=C(N3CCOCC3)C(=O)c3ccccc3C2=O)cc1,11.3 µM
3,CCOC(=O)c1nn(-c2ccc(OC)cc2)c(=O)c2c(N)scc12,> 38 µM (inactive)
4,COc1ccc(NC(=O)c2cccc(N3C(=O)C4C5C=CC(C5)C4C3=O)c2)cc1Cl (stereo not given),> 38 µM (inactive)
5,COc1ccc(-c2nnc(Sc3nc4ccccc4o3)c3ccccc23)cc1,18.8 µM
6,Cc1ccc(C2C(C#N)=C(N)Oc3n[nH]c(-c4cccs4)c32)cc1 (stereo not given),15.3 µM
7,C/C(CC(=O)Nc1cc(C)ccn1)=N\NC(=O)c1ccc(C)cc1,> 38 µM (inactive)
8,Cc1ccc(C(c2cc(Cl)c3cccnc3c2O)N2CCN(C)CC2)cc1 (stereo not given),19.3 µM
9,CC(C)(C)c1[nH]nc2c1C(c1ccco1)C(C#N)=C(N)O2 (stereo not given),38.8 µM
10,O=c1c2ccccc2nc2n1CCC2,22.9 µM
11,CC1=NNC(=O)/C1=C\c1cn(-c2ccccc2)nc1-c1ccccc1,8.49 µM
12,COc1ccc(C(=O)c2c(C(F)(F)F)oc3c2C(=O)c2ccccc2C3=O)cc1,0.93 µM
13,Cc1ccc(S(=O)(=O)c2c(N)n(CCC(C)C)c3nc4ccccc4nc23)cc1,5.3 µM
14,COc1cccc(C(c2c(C)[nH]n(-c3ccccc3)c2=O)c2c(C)[nH]n(-c3ccccc3)c2=O)c1OC,2.19 µM
15,CC1(S(=O)(=O)O)CC(=O)c2ccccc2C1=O (stereo not given),6.36 µM
16,Cc1ccc(N(NC(=O)C(O)(c2ccccc2)c2ccccc2)C(=O)CCl)cc1,1.57 µM
17,Cn1cnc([N+](=O)[O-])c1Sc1nnc(-c2cccnc2)n1C,> 38 µM (inactive)
18,O=S(=O)(O)Oc1c[nH]c2ccccc12,5.48 µM
19,COc1cc2c(cc1OC)-c1c(OC)c(OC)cc3c1C(C2)N(C)CC3 (stereo not given),10.3 µM
20,CC1=NNC(=O)/C1=C\c1cn(-c2ccccc2)nc1-c1ccc(F)cc1,12 µM
21,CC(C)(C)Nc1nc(Cl)nc(N(C#N)CN2C(=O)c3ccccc3S2(=O)=O)n1,> 38 µM (inactive)
22,CC[C@@H](CO)NC(=O)[C@@H]1C=C2c3cccc4c3c(cn4C)C[C@H]2N(C)C1,> 38 µM (inactive)
23,CCc1ccccc1N1C(=O)C(Cl)=C(N2CCOCC2)C1=O,> 38 µM (inactive)
24,Cc1ccc(NC(=O)c2sc3ncnc(N4CCN(c5ccccn5)CC4)c3c2C)c(C)c1,> 38 µM (inactive)
25,COc1ccc(/C=C2\SC(=S)N(CCCC(=O)Nc3ccc(O)cc3)C2=O)cc1,> 38 µM (inactive)
26,CC(CCn1cccn1)NC(=O)CCc1nnc(CCc2ccccc2)o1 (stereo not given),> 38 µM (inactive)
27,Cc1oc2c(c1C(=O)N1CCOCC1)C(=O)c1ccccc1C2=O,9.55 µM

row,Structure (SMILES),AC50
1,CCOc1ccccc1C1C(C#N)=C(N)Nc2onc(-c3ccccc3)c21 (stereo not given),33.4 µM
2,CC1=NNC(=O)C1Cc1c(Cl)cccc1Cl (stereo not given),> 38 µM (inactive)
3,Cc1ccccc1N1C(=O)c2ccccc2C1Nc1cccnc1 (stereo not given),> 38 µM (inactive)
4,O=C(CCl)N=c1sccn1Cc1ccc(Cl)cc1Cl,5.88 µM
5,O=C(O)c1ccc(S(=O)(=O)/N=C2\C=C(Nc3ccccc3F)C(=O)c3ccccc32)cc1,0.229 µM
6,COC1=CC(=O)C(O)=C(CCCCCCC/C=C/CCCCCCCC2=C(O)C(=O)C=C(OC)C2=O)C1=O,4.64 µM
7,O=C1C=C(Nc2cccc3cccnc23)c2ccccc2C1=O,24.2 µM
8,CCOc1ccc(CN2CCN(CC3=Cc4cccc(OC)c4OC3)CC2CCO)cc1 (stereo not given),> 38 µM (inactive)
9,N#Cc1cc([N+](=O)[O-])ccc1NC(=O)COC(=O)CCC1CCCCC1,15.1 µM
10,O=C(CCCN1C(=O)/C(=C/c2ccccc2)SC1=S)Nc1ccc(C(=O)O)c(O)c1,33.8 µM
11,COc1ccccc1C1C(C#N)=C(N)Oc2c1c(-c1ccccc1)nn2-c1ccccc1 (stereo not given),11.9 µM
12,CC1C(=O)C(C)C(c2cc(Cl)ccc2O)NC1c1cc(Cl)ccc1O (stereo not given),5.18 µM
13,Cc1ccc(SC(=O)c2c(C)noc2-c2cc(C)on2)cc1,> 38 µM (inactive)
14,COc1ccc(C(=O)Nc2ccncc2)cc1[N+](=O)[O-],> 38 µM (inactive)
15,COc1ccc2ccc3c(c2c1)N=C[C@]1(O3)N(C)c2ccccc2C1(C)C,> 38 µM (inactive)
16,CCCNC(=O)c1nnsc1S(=O)c1ccc(Cl)cc1 (stereo not given),32.9 µM
17,O=C(CCN1C(=O)/C(=C/c2cccs2)SC1=S)Nc1ccc(C(=O)O)c(O)c1,19 µM
18,O=C(CNC1=NCCC1)c1ccc(Cl)cc1,> 38 µM (inactive)
19,O=C(CCl)N(c1ccccc1)c1ccccc1,5.75 µM
20,CC(C)(C)c1cc(NC(=O)CCl)n(-c2ccccc2)n1,22.2 µM
21,N=c1c2c(-c3ccccc3)c(-c3ccccc3)n(Cc3ccco3)c2ncn1Cc1ccco1,6.99 µM
22,Oc1c(C=NCc2ccc(F)cc2)[nH]c2ccc(Br)c(Cl)c12,30.8 µM
23,COc1ccc(C=C(c2nc3ccccc3s2)c2nc3ccccc3s2)cc1O,3.04 µM
24,CCCCCCCCOC(=O)c1c(CSC(=N)N)n(C)c2cc(Br)c(OC(C)=O)cc12,14.5 µM
